The source of these data is ChEMBL document CHEMBL3639372, “Disubstituted azepan orexin receptor antagonists” (2014).

The target in this assay is T1, Orexin/Hypocretin receptor type 1 (Rattus norvegicus, UniProt P56718).
T1 sequence (P56718 whole entry): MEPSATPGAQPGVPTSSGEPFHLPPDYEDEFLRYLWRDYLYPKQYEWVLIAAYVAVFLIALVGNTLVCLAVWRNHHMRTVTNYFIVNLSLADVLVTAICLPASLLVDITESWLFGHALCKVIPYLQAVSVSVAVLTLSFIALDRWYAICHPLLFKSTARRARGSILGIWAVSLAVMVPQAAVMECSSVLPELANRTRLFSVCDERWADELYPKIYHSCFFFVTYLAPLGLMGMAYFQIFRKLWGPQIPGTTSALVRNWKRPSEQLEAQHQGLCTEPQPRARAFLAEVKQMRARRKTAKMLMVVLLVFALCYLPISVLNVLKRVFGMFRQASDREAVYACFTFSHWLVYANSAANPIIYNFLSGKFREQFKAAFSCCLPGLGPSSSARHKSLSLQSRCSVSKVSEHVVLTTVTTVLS
Nature of the assay: Radioligand Binding Assay: Compound potency can be assessed by a radioligand binding assay (described in Bergman et. al. Bioorg. Med. Chem. Lett. 2008, 18, 1425-1430) in which the inhibition constant (Ki) is determined in membranes prepared from CHO cells expressing either the orexin-1 (OX1) or orexin-2 (OX2) receptor. In kind it is cell membranes.
Turning to `Cc1ccc(-n2nccn2)c(C(=O)N2CCCCC(COc3ccc(F)c(C)c3)C2)c1` (centres undefined), the Ki (in general, a dissociation constant, usually derived from enzyme kinetics or from competition with a known ligand) worked out at 15 nM.

`Cc1ccc(-n2nccn2)c(C(=O)N2CC(COc3ccc(F)c(C)c3)CCCC2C)c1` (centres undefined) displayed a Ki of 8.7 nM.

`Cc1cc(OCC2CCCC(C)N(C(=O)c3ccccc3-n3nccn3)C2)ccc1F` (centres undefined): the Ki is 50 nM.

The compound `Cc1ccc(-n2nccn2)c(C(=O)N2CC(COc3ccc(F)cn3)CCCC2C)c1` (centres undefined) came in with an inhibition constant Ki of 150 nM.

Compound `Cc1ccc(-c2ncccn2)c(C(=O)N2CC(COc3ccc(F)c(C)c3)CCCC2C)c1` (centres undefined) registered a Ki of 42 nM.

For the compound `Cc1ccc(-c2nccs2)c(C(=O)N2CC(COc3ccc(F)cn3)CCCC2C)c1` (centres undefined), the affinity corresponds to a Ki of 73 nM.

The compound `Cc1ccc(-c2ncccn2)c(C(=O)N2CC(COc3ccc(F)cn3)CCCC2C)c1` (centres undefined) yielded a Ki of 310 nM.

Consider `Cc1ccc(-n2nccn2)c(C(=O)N2CC(COc3ccc(F)c(C)c3)COCC2C)c1` (centres undefined), for which the affinity, expressed as Ki, was 5.1 nM.

`Cc1cc(OCC2COCC(C)N(C(=O)c3ccccc3-n3nccn3)C2)ccc1F` (centres undefined) gave a Ki of 39 nM.
